In US8362031B2, “Lonidamine analogues and treatment of polycystic kidney disease” (University of Kansas, priority 2004, dated 2013):

Experiments:
Male Long Evans rats = assay: In vivo antispermatogenic testing in Long Evans rats; conditions: for Mortality (25 mg/kg) / Response 25 mg/kg: 25 mg/kg single i.p. injection; for Response 25 mg/kg / Response 200 mg/kg: animals responding out of animals surviving, five days following injection; for Mortality (200 mg/kg) / Response 200 mg/kg: 200 mg/kg single i.p. injection; for Staging 25 mg/kg / Staging 200 mg/kg: seminiferous tubule staging; for Staging 25 mg/kg: 25 mg/kg i.p.; for Staging 200 mg/kg: 200 mg/kg i.p.
[1] = tested on: Salmonella Typhimurium TA 100; assay: Ames test for mutagenicity (plate assay, colony count); conditions: 48 hours at 37° C.; for Ames test (+)S9 0.1 mg/pl. / Ames test (+)S9 1 mg/pl. / Ames test (+)S9 10 mg/pl.: (+)S9 mix; for Ames test (−)S9 0.1 mg/pl. / Ames test (−)S9 1 mg/pl. / Ames test (−)S9 10 mg/pl.: (−)S9 mix

| SMILES | Mortality (25 mg/kg) (Male Long Evans rats) | Response 25 mg/kg (Male Long Evans rats) | Mortality (200 mg/kg) (Male Long Evans rats) | Response 200 mg/kg (Male Long Evans rats) | Staging 25 mg/kg (Male Long Evans rats) | Staging 200 mg/kg (Male Long Evans rats) | Ames test (+)S9 0.1 mg/pl. [1] | Ames test (+)S9 1 mg/pl. [1] | Ames test (+)S9 10 mg/pl. [1] | Ames test (−)S9 0.1 mg/pl. [1] | Ames test (−)S9 1 mg/pl. [1] | Ames test (−)S9 10 mg/pl. [1] |
| --- | --- | --- | --- | --- | --- | --- | --- | --- | --- | --- | --- | --- |
| NNC(=O)c1nn(Cc2ccc(Cl)cc2Cl)c2ccccc12 [AF2364, reference compound] | 0/5 | 3/5 | 0/5 | 5/5 | 3.5 | 2.1 | – | – | – | – | – | – |
| O=C(O)/C=C/c1nn(Cc2ccc(Cl)cc2Cl)c2ccccc12 [AF2785, reference compound] | 0/5 | 1/5 | 2/6 | 3/4 | 5.5 | 3.4 | – | – | – | – | – | – |
| O=C(O)c1nn(Cc2ccc(Cl)cc2Cl)c2cc(Cl)ccc12 [DD-MC-I, 6-chloro-1-(2,4-dichlorobenzyl)-1H-indazole-3-carboxylic acid] | 0/5 | 0/5 | 0/5 | 2/5 | – | – | Pass | Pass | Pass | Pass | Pass | Pass |
| COC(=O)c1nn(Cc2ccc(Cl)cc2Cl)c2ccc(C(F)(F)F)cc12 [JWS-1-254, 1-(2,4-dichlorobenzyl)-5-trifluoromethyl-1H-indazole-3-carboxylic acid methyl ester] | 0/5 | 0/5 | 0/5 | 0/5 | – | – | Pass | Pass | Pass | Pass | Pass | Pass |
| COC(=O)c1nn(Cc2ccc(F)cc2F)c2cc(C(F)(F)F)ccc12 [JWS-1-270, 1-(2,4-difluorobenzyl)-6-trifluoromethyl-1H-indazole-3-carboxylic acid methyl ester] | 0/5 | 0/5 | 0/5 | 0/5 | – | – | Pass | Pass | Pass | Pass | Pass | Pass |
| NNC(=O)c1nn(Cc2ccc(F)cc2F)c2cc(C(F)(F)F)ccc12 [JWS-1-274, 1-(2,4-difluorobenzyl)-6-trifluoromethyl-1H-indazole-3-carboxylic acid hydrazide] | 0/5 | 0/5 | 0/5 | 0/5 | – | – | Pass | Pass | Pass | Pass | Pass | Pass |
| O=C(O)c1nn(Cc2ccc(F)cc2F)c2cc(C(F)(F)F)ccc12 [JWS-1-276, 1-(2,4-difluorobenzyl)-6-trifluoromethyl-1H-indazole-3-carboxylic acid] | 0/5 | 0/5 | 0/5 | 0/5 | – | – | Pass | Pass | Pass | Pass | Pass | Pass |
| COC(=O)c1nn(Cc2ccc(F)cc2F)c2cc(Cl)ccc12 [JWS-1-280, 1-(2,4-difluorobenzyl)-6-chloro-1H-indazole-3-carboxylic acid methyl ester] | 0/5 | 0/5 | 0/5 | 0/5 | – | – | Pass | Pass | Pass | Pass | Pass | Pass |
| O=C(O)/C=C/c1nn(Cc2ccc(F)cc2Cl)c2cc(C(F)(F)F)ccc12 [JWS-2-40, 3-[1-(2-chloro, 4-fluorobenzyl)-6-trifluoromethyl-1H-indazol-3-yl]-acrylic acid] | – | – | – | – | – | – | Pass | Pass | Pass | Pass | Pass | Mar- |
| NNC(=O)c1nn(Cc2ccc(Cl)cc2Cl)c2ncccc12 [RC-MC-60, 1-(2,4-dichlorobenzyl)-1H-pyrazolo[3,4-b]pyridine-3-carboxylic acid hydrazide] | 0/5 | 0/5 | 0/5 | 0/5 | – | – | Pass | Pass | Pass | Pass | Pass | Pass |
| O=C(O)/C=C/c1nn(Cc2ccc(Cl)cc2Cl)c2ncccc12 [RC-MC-65, 3-[1-(2,4-dichlorobenzyl)-1H-pyrazolo[3,4-b]pyridine-3-yl]-acrylic acid] | – | – | – | – | – | – | Pass | Fail | Fail | Pass | Fail | Fail |
| O=C(O)c1nn(Cc2ccc(Cl)cc2Cl)c2ncccc12 [RC-MC-86, 1-(2,4-dichlorobenzyl)-1H-pyrazolo[3,4-b]pyridine-3-carboxylic acid] | 0/5 | 0/5 | 0/5 | 5/5 | – | – | Pass | Pass | Pass | Pass | Pass | Pass |
| NNC(=O)c1nn(Cc2ccc(Cl)cc2Cl)c2cc(C(F)(F)F)ccc12 [RC-MC-101, 1-(2,4-dichlorobenzyl)-6-trifluoromethyl-1H-indazole-3-carboxylic acid hydrazide] | 0/5 | 0/5 | 0/5 | 0/5 | – | – | Pass | Pass | Pass | Pass | Pass | Pass |
| COC(=O)C=Cc1nn(Cc2ccc(Cl)cc2Cl)c2cc(C(F)(F)F)ccc12 [RC-MC-200] | – | – | – | – | – | – | Pass | Fail | Fail | Pass | Pass | Pass |
| NNC(=O)/C=C/c1nn(Cc2ccc(Cl)cc2Cl)c2cc(C(F)(F)F)ccc12 [RC-MC-205, 3-[1-(2,4-dichlorobenzyl)-6-trifluoromethyl-1H-indazol-3-yl]-acrylic acid hydrazide] | – | – | – | – | – | – | Pass | Fail | Fail | Pass | Fail | Mar- |
